Data: patent publication US10301351B2, “Stitched polypeptides” (President and Fellows of Harvard College, priority 2007, dated 2019)
Bridge positions count the residues as written; N and C are the ends. Square brackets hold non-standard residues; d marks the D form. S8 = C=CCCCCCC[C@](C)(N)C(=O)O; R5 = C=CCCC[C@@](C)(N)C(=O)O; S5 = C=CCCC[C@](C)(N)C(=O)O; Aib = CC(C)(N)C(=O)O

Experiments:
[1] = system: chymotrypsin; experiment: Stability of peptides against chymotrypsin; type: in vitro ADME; details: compared with stapled peptide 5
[2] = molecular target: T1, trypsin (Bos taurus, UniProt P00760); type: in vitro ADME; details: for slope of ln[S] versus time (first order kinetics of trypsin digestion): 0.1 M NH4HCO3 buffer pH 8.0, room temperature
T1 construct: purchased Pierce 20230
T1 sequence (P00760 24-246): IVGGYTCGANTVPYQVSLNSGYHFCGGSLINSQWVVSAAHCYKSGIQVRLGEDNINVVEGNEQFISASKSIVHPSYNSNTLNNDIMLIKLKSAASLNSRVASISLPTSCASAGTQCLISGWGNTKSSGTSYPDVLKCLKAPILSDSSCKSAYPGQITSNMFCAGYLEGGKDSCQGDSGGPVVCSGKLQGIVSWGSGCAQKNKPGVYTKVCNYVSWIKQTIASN
Protocol: 0.4 mL of trypsin immobilized on agarose (Pierce, catalog #20230) was washed with 0.8 mL of a digestion buffer (0.1 M NH4HCO3 buffer, pH 8.0). The gel was separated from the buffer after each wash by centrifugation. The washed enzyme was suspended in 1.6 mL of the digestion buffer. 350 μL of a peptide solution (24 μM) in the digestion buffer was mixed with 150 μL of the enzyme suspension and the resulting mixture was incubated with rapid shaking at room temperature for 10, 30, 90, 135, 180 minutes. The incubation was quenched by filtering off the enzyme, and the residual substrate in the filtrate was quantified by HPLC-based peak detection at 280 nm.

[3] = Stability of peptides against guanidine hydrochloride (helicity); type: physicochemical
[4] = Circular dichroism, temperature-dependent spectra and thermal unfolding curves; type: physicochemical
Protocol: Peptides were dissolved in water to described concentrations, and the concentrations were determined by absorbance spectroscopy (extinction coefficient for tryptophan, ε280=5690 cm^-1). Circular dichroism spectra were collected on a Jasco J-710 spectropolarimeter equipped with a temperature controller using the following standard measurement parameters: 0.5 nm step resolution, 20 nm/sec speed, 10 accumulations, 1 sec response, 1 nm bandwidth, 0.1 cm path length. All spectra were converted to a uniform scale of molar ellipticity after background subtraction. Temperature-dependent CD spectra of each peptide (94-100 μM) were recorded at varying temperatures (4° C. and every 10° C. from 10° C. to 90° C.) from 260 to 185 nm. CD measurements with varying concentrations (18, 48, 70, and 118 μM) of peptide 4 were performed at 20° C. To generate thermal unfolding curves, the ellipticity at 222 nm for each peptide (94-100 μM) was measured every 1° C. from 4 to 95° C. with temperature slope of 3° C./min. To obtain Tm, we analyzed the thermal unfolding curves using a two-state model as previously described with 95% confidence interval (see […]. Biophysic. J. 2003, 85, 1457-1465). […] However, peptide 4 retained more than 50% of their alpha-helicity even at 95° C.

In the case of `CC(=O)N[C@@H](CCC(=O)O)C(=O)N[C@@H](Cc1c[nH]c2ccccc12)C(=O)N[C@@H](C)C(=O)N[C@@]1(C)CCC/C=C\CCC[C@]2(CCC/C=C/CCCCCC[C@@](C)(C(N)=O)NC(=O)[C@H](Cc3c[nH]cn3)NC(=O)[C@H](C)NC(=O)[C@H](C)NC(=O)[C@H](CC(C)C)NC(=O)[C@H](Cc3ccccc3)NC(=O)[C@H](CCCCN)NC2=O)NC(=O)[C@H](C)NC(=O)[C@H](C)NC(=O)[C@H]([C@@H](C)O)NC1=O` [Peptide 4], the “stability against chymotrypsin (in words)” value [1] is reported as “higher level of stability”, the “slope of ln[S] versus time (first order kinetics of trypsin digestion)” value [2] is reported as 4.04±0.16×10^−5 min^−1 and the half-life ([2]; pH 8) is reported as 2.87 h. The “stability against the denaturing agent guanidine hydrochloride (in words)” value [3] was “remains fully helical even at extremely high concentrations of guanidine salt”, the “helical character by CD (in words)” value [4] was “displayed the characteristic CD signature of alpha-helices” and the “cooperative melting transition point (in words)” value ([4]; 4 to 95° C.) was “did not have a cooperative melting transition point”. For the same compound, the alpha-helicity retained ([4]; at 95° C.) was “more than 50%” and the “thermal stability of the helix by CD (in words)” value ([4]; increasing temperature) was “less affected by increasing temperature than single-stapled peptides 5 and 6”.

For “Peptide 5: single-stapled peptide, RCM product of Table 5 entry IX (SEQ ID 9) (Ac-EWA[Aib]TAA[R5]KFLAAH[S8]-NH2; staple 8-15 (inferred))”, the “slope of ln[S] versus time (first order kinetics of trypsin digestion)” value [2] was 7.11±0.66×10^−5 min^−1 and the “cooperative melting transition (Tm)” value ([4]; CD ellipticity at 222 nm, 4 to 95° C., peptide 94-100 μM in water, two-state model) was 57 °C.

For “Peptide 8: i+4+4 stitched peptide, double RCM product of Table 5 entry XI (SEQ ID 11) (Ac-EWA[S5]TAA[2‑amino‑2‑(pent-4-enyl)hept‑6‑enoic acid]KFL[R5]AHA-NH2; staple 8-12, 4-8)”, the “helical character by CD (in words)” value [4] was “helical character greater than the stapled peptide 5 and less than that of the i+4+7 stitched peptide 4” and the “cooperative melting transition point (in words)” value ([4]; 4 to 95° C.) was “did not have a cooperative melting transition point”.
